Test results reported in the NIST ThermoML archive (doi:10.1007/s10765-008-0535-5).

Assay: molar heat capacity at constant volume; wn = mass fraction of the nth substance listed
Settings: Liquid, Vacuum adiabatic calorimetry, w2 = 0.5111

FC(F)C(F)(F)F [pentafluoroethane] + FCF
Settings	molar heat capacity at constant volume [J/K/mol]
268.15 K, 3423 kPa	62.96
269.15 K, 4259 kPa	64.11
270.15 K, 5065 kPa	63.82
270.15 K, 5095 kPa	63.25
270.15 K, 5157 kPa	63.82
271.15 K, 5903 kPa	64.9
271.15 K, 5931 kPa	64.04
271.15 K, 5992 kPa	62.96
272.15 K, 6740 kPa	64.18
272.15 K, 6767 kPa	64.61
272.15 K, 6828 kPa	63.25
273.15 K, 7576 kPa	64.54
273.15 K, 7602 kPa	63.82
273.15 K, 7662 kPa	64.04
274.15 K, 8411 kPa	65.12
274.15 K, 8437 kPa	65.19
274.15 K, 8496 kPa	63.82
275.15 K, 9245 kPa	64.9
275.15 K, 9272 kPa	64.9
275.15 K, 9328 kPa	63.75
276.15 K, 10082 kPa	65.77
276.15 K, 10107 kPa	64.83
276.15 K, 10161 kPa	64.25
277.15 K, 10917 kPa	65.84
277.15 K, 10942 kPa	65.62
277.15 K, 10993 kPa	65.05
278.15 K, 11753 kPa	66.05
278.15 K, 11776 kPa	65.55
278.15 K, 11824 kPa	64.4
279.15 K, 12587 kPa	65.69
279.15 K, 12611 kPa	66.12
279.15 K, 12657 kPa	65.33
280.15 K, 13423 kPa	66.92
280.15 K, 13444 kPa	65.12
280.15 K, 13488 kPa	64.9
281.15 K, 14258 kPa	65.69
281.15 K, 14277 kPa	66.63
281.15 K, 14319 kPa	65.69
282.15 K, 15091 kPa	66.92
282.15 K, 15110 kPa	66.27
282.15 K, 15148 kPa	65.55
283.15 K, 15926 kPa	66.63
283.15 K, 15943 kPa	66.05
283.15 K, 15978 kPa	64.76
284.15 K, 16759 kPa	66.56
284.15 K, 16775 kPa	66.34
284.15 K, 16808 kPa	66.05
285.15 K, 17592 kPa	67.2
285.15 K, 17606 kPa	67.06
285.15 K, 17637 kPa	65.77
286.15 K, 18423 kPa	66.77
286.15 K, 18437 kPa	66.7
286.15 K, 18467 kPa	66.41
287.15 K, 19253 kPa	66.2
287.15 K, 19268 kPa	66.7
287.15 K, 19297 kPa	65.19
288.15 K, 20083 kPa	67.35
288.15 K, 20097 kPa	67.28
288.15 K, 20124 kPa	66.05
289.15 K, 20914 kPa	67.35
289.15 K, 20926 kPa	66.7
289.15 K, 20951 kPa	66.27
290.15 K, 21743 kPa	67.49
290.15 K, 21755 kPa	67.28
290.15 K, 21778 kPa	66.12
291.15 K, 22571 kPa	67.28
291.15 K, 22583 kPa	66.7
291.15 K, 22607 kPa	66.05
292.15 K, 23400 kPa	67.35
292.15 K, 23410 kPa	67.35
292.15 K, 23433 kPa	66.63
293.15 K, 24226 kPa	67.13
293.15 K, 24236 kPa	67.06
293.15 K, 24257 kPa	66.2
294.15 K, 25053 kPa	67.42
294.15 K, 25062 kPa	67.42
294.15 K, 25082 kPa	67.28
295.15 K, 25878 kPa	66.84
295.15 K, 25887 kPa	67.13
295.15 K, 25903 kPa	65.05
296.15 K, 5585 kPa	69.44
296.15 K, 5620 kPa	68.57
296.15 K, 5667 kPa	65.84
296.15 K, 26704 kPa	67.92
296.15 K, 26711 kPa	66.99
296.15 K, 26725 kPa	66.48
297.15 K, 6213 kPa	68.72
297.15 K, 6246 kPa	68.86
297.15 K, 6292 kPa	68.14
297.15 K, 27528 kPa	67.28
297.15 K, 27534 kPa	66.63
297.15 K, 27546 kPa	66.2
298.15 K, 6841 kPa	70.08
298.15 K, 6872 kPa	68.28
298.15 K, 6917 kPa	67.78
298.15 K, 28352 kPa	66.99
298.15 K, 28357 kPa	66.84
298.15 K, 28366 kPa	65.48
299.15 K, 7469 kPa	69.08
299.15 K, 7499 kPa	69.29
299.15 K, 7541 kPa	67.28
299.15 K, 29176 kPa	67.56
299.15 K, 29179 kPa	67.49
299.15 K, 29186 kPa	66.05
300.15 K, 8097 kPa	69.15
300.15 K, 8124 kPa	67.85
300.15 K, 8166 kPa	68.07
300.15 K, 29998 kPa	66.56
300.15 K, 29999 kPa	65.55
300.15 K, 30003 kPa	66.7
301.15 K, 8725 kPa	68.57
301.15 K, 8750 kPa	68.07
301.15 K, 8791 kPa	67.92
302.15 K, 9353 kPa	68.14
302.15 K, 9377 kPa	68.86
302.15 K, 9417 kPa	66.99
303.15 K, 9980 kPa	68.57
303.15 K, 10003 kPa	68.28
303.15 K, 10042 kPa	67.2
304.15 K, 10607 kPa	68.72
304.15 K, 10629 kPa	66.92
304.15 K, 10667 kPa	67.49
305.15 K, 11234 kPa	66.92
305.15 K, 11256 kPa	67.42
305.15 K, 11292 kPa	66.05
306.15 K, 11861 kPa	68.14
306.15 K, 11881 kPa	66.99
306.15 K, 11917 kPa	66.2
307.15 K, 12487 kPa	66.77
307.15 K, 12507 kPa	67.28
307.15 K, 12541 kPa	66.92
308.15 K, 13114 kPa	67.06
308.15 K, 13133 kPa	67.35
308.15 K, 13165 kPa	65.84
309.15 K, 13740 kPa	66.92
309.15 K, 13758 kPa	67.13
309.15 K, 13790 kPa	66.12
310.15 K, 14367 kPa	67.13
310.15 K, 14384 kPa	66.05
310.15 K, 14414 kPa	65.91
311.15 K, 14992 kPa	66.48
311.15 K, 15009 kPa	66.2
311.15 K, 15038 kPa	65.84
312.15 K, 15618 kPa	64.9
312.15 K, 15634 kPa	67.13
312.15 K, 15662 kPa	65.26
313.15 K, 16243 kPa	66.7
313.15 K, 16259 kPa	66.2
313.15 K, 16286 kPa	65.26
314.15 K, 16869 kPa	66.2
314.15 K, 16883 kPa	65.98
314.15 K, 16910 kPa	65.26
315.15 K, 17493 kPa	65.77
315.15 K, 17507 kPa	65.84
315.15 K, 17534 kPa	64.54
316.15 K, 18118 kPa	65.77
316.15 K, 18131 kPa	65.12
316.15 K, 18158 kPa	64.9
317.15 K, 18743 kPa	65.48
317.15 K, 18755 kPa	64.33
317.15 K, 18781 kPa	64.47
318.15 K, 19367 kPa	64.97
318.15 K, 19379 kPa	64.9
318.15 K, 19404 kPa	64.25
319.15 K, 19990 kPa	65.05
319.15 K, 20003 kPa	65.12
319.15 K, 20027 kPa	64.61
320.15 K, 20613 kPa	63.75
320.15 K, 20627 kPa	65.77
320.15 K, 20649 kPa	64.33
321.15 K, 21236 kPa	64.69
321.15 K, 21250 kPa	64.69
321.15 K, 21272 kPa	63.61
322.15 K, 21858 kPa	64.69
322.15 K, 21873 kPa	63.9
322.15 K, 21894 kPa	64.04
323.15 K, 22480 kPa	63.9
323.15 K, 22495 kPa	63.9
323.15 K, 22516 kPa	63.61
324.15 K, 23103 kPa	64.33
324.15 K, 23117 kPa	64.97
324.15 K, 23137 kPa	62.6
325.15 K, 23725 kPa	64.25
325.15 K, 23738 kPa	63.39
325.15 K, 23758 kPa	63.1
326.15 K, 24347 kPa	64.33
326.15 K, 24361 kPa	64.9
326.15 K, 24379 kPa	62.74
327.15 K, 24970 kPa	63.75
327.15 K, 24981 kPa	63.1
327.15 K, 25000 kPa	63.68
328.15 K, 25590 kPa	62.96
328.15 K, 25601 kPa	63.1
328.15 K, 25620 kPa	62.17
